The values below come from PubChem BioAssay AID652274 (Broad Institute, 2013).

Records with an inconclusive call do not appear.

The subject of this test is washed human platelets, SFLLRN aggregation after wash, transmittance. As to the kind of experiment: irreversible platelet aggregation inhibition after washout, late-stage follow-up, mechanism study for PDI inhibitor project, cell-based, aggregometer, SFLLRN stimulus, single point, dry powder (AID 652274). As to conditions: at 30 µM.

In the case of `C/C1=C\C[C@H](OC(=O)c2ccc(O)cc2)/C(C)=C/[C@@H](O)C(C)(C)CCC1`, the platelet aggregation inhibition after wash (%), active compounds read high is 100%.
